Converted amounts (≈) assume the structure as drawn.
Columns and labels:
[1] = system: Staphylococcus aureus; assay: Antibacterial activity against methicillin-resistant Staphylococcus aureus USA300 NRS384 assessed as inhibition of bacterial growth measured after 18 to 20 hrs by broth microdilution method; format: functional; details: time 18-20 hrs
[2] = system: Escherichia coli; assay: Antibacterial activity against Escherichia coli JW55031 harboring toIC efflux mutant assessed as inhibition of bacterial growth measured after 18 to 20 hrs by broth microdilution method; format: functional; details: time 18-20 hrs
[3] = system: Escherichia coli; assay: Antibacterial activity against wild type Escherichia coli BW25113 assessed as inhibition of bacterial growth measured after 18 to 20 hrs by broth microdilution method; format: functional; details: time 18-20 hrs
[4] = system: Staphylococcus epidermidis; assay: Ratio of MBC to MIC for methicillin-resistant Staphylococcus epidermidis NRS101 assessed as inhibition of bacterial growth measured after 18 to 20 hrs by CLSI protocol based broth microdilution method; format: functional; details: time 18-20 hrs
[5] = system: Staphylococcus aureus; assay: Antibacterial activity against vancomycin-resistant Staphylococcus aureus 12 assessed as inhibition of bacterial growth measured after 18 to 20 hrs by CLSI protocol based broth microdilution method; format: functional; details: time 18-20 hrs
[6] = system: Enterococcus faecium; assay: Antibacterial activity against vancomycin-resistant Enterococcus faecium ATCC 700221 assessed as inhibition of bacterial growth measured after 18 to 20 hrs by CLSI protocol based broth microdilution method; format: functional; details: time 18-20 hrs
[7] = Selectivity index, ratio of maximum non-toxic concentration for human Caco-2 cells to MIC for methicillin-resistant Staphylococcus aureus USA400 NRS123; format: toxicity
[8] = system: Staphylococcus aureus; assay: Antibacterial activity against methicillin-resistant Staphylococcus aureus USA400 NRS123 infected in mouse J774 cells assessed as reduction in intracellular bacterial burden at 4 x MIC measured after 24 hrs relative to control; format: functional
[9] = Half life in human liver microsomes at 0.1 uM in presence of NADPH by LC/MS/MS analysis
[10] = Selectivity index, ratio of maximum non-toxic concentration for human Caco-2 cells to MIC for methicillin-resistant Staphylococcus aureus USA700 NRS386; format: toxicity
[11] = system: Staphylococcus aureus; assay: microbe, parasite or virus in culture; details: USA700 NRS386

With `C/C(=N\NC(=N)N)c1ccc(Nc2nc(-c3ccc(C)cc3)cs2)cc1` the MIC [1] was 2 µg/mL (≈ 5.49 µM), the MIC [2] was 4 µg/mL (≈ 11 µM) and the MIC [3] was 16 µg/mL (≈ 43.9 µM). It also gave a Ratio [4] of 1, an MBC [5] of 2 µg/mL (≈ 5.49 µM) and an MIC [5] of 2 µg/mL (≈ 5.49 µM). It also gave an MBC [6] of 4 µg/mL (≈ 11 µM), an MIC [6] of 2 µg/mL (≈ 5.49 µM) and a selectivity ratio [7] of 16. For the same molecule, the “inhibition (INH)” value [8] was 99%, the half-life at 0.1 µM [9] was 1.96 h and the selectivity ratio [10] was 16. It also gave an MBC [11] of 2 µg/mL (≈ 5.49 µM) and an MIC [11] of 2 µg/mL (≈ 5.49 µM).
